{"source": "paper PMC3566787", "about": "“Efficient synthesis of phenylene-ethynylene rods and their use as rigid spacers in divalent inhibitors” (Beilstein Journal of Organic Chemistry, 2013)", "molecular_target": "T1, LecA (Pseudomonas aeruginosa, UniProt Q05097)", "T1 construct": "FITC-labeled LecA", "T1 sequence (Q05097 2-122)": "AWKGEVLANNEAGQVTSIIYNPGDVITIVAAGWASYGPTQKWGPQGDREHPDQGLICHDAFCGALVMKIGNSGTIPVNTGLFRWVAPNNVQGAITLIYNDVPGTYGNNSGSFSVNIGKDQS", "experiment": "ELISA-type competition assay on a glycochip: inhibition of FITC-labeled LecA binding to a galactoside-functionalized surface"}
{"smiles": "COCCOCCOc1cc(C#Cc2cc(OCCOCCOC)c(-c3cn(CCCO[C@@H]4O[C@H](CO)[C@H](O)[C@H](O)[C@H]4O)nn3)cc2OCCOCCOC)c(OCCOCCOC)cc1C#Cc1cc(OCCOCCOC)c(-c2cn(CCCO[C@@H]3O[C@H](CO)[C@H](O)[C@H](O)[C@H]3O)nn2)cc1OCCOCCOC", "note": "[compound 22, divalent ligand 22]", "values": [{"measurement": "IC50", "result": 0.9, "unit": "µM"}]}
